Counter-ions that a name gives are not always drawn. Like-named read-outs stand apart in the source and are kept apart here.
Legend:
Type in all cases: cell-based
HIV-1 virus strain 20678 = experiment: Inhibition of infection of primary HIV-1 isolate 20678 in PBMCs (p24 antigen ELISA); details: for Selectivity Index: GI50 (Diff.CD34+) divided by EC50 (PBMC), values fit AVG GI50 / EC50 of virus 20678; for EC50: Human immunodeficiency virus 1, 192 h, PBMC infected with virus 20678, p24 production at day 8
Description: (§1) Monocyte/macrophages represent a major reservoir of HIV-1 in the infected human host. See L. Epstein et al., AIDS Res. 14, 447 (1984). However, these cells tend to be resistant to dideoxynucleoside prodrugs due to low levels of kinases needed to activate the prodrugs. See C. Pemo et al., J. Exp. Med. 168, 1111 (1984). To test the compounds described herein in these cells, PBMC cells infected for 7 days with two different virus strains (20678 and JR-FL) and under PHA stimulation for 4 days were treated with AZT, FOZ ISO 850, FOZ ISO 851, and FOZ MIX Na.
(§2) PBMC's were prepared as follows: 50 ml of whole human blood was centrifuged at 1000 g for 15 min, supernatant (plasma) removed, and cells resuspended in 80 ml PBS. 20 ml resuspended blood was then layered onto 25 ml Ficoll-Paque Plus (GE Healthcare, Uppsala Sweden), and centrifuged at 400 g for 30 min. The PBMC layer at the interface was collected, washed two times with 20 ml PBS, and resuspended in 20 ml RPMI/10% FBS.
(§3) Day 5-Stimulation of PBMC: PBMCs were grown in 50 ml of stimulation medium (RPMI, 15% FBS, 5 units/ml of IL-2, and 6 ug/ml of PHA) for 5 days.
(§4) Day 1-Infection of PBMC: PBMCs were counted with a hemacytometer. Stimulation medium was removed by centrifugation at RT, 1,500 rpm/5′ and cells resuspended in growth medium (RPMI, 15% of FBS, 10 units/ml of IL-2). PBMCs were infected with JR-FL or 20678 as follows: for one 96-well plate, 20 millions cells were infected with 1 ml of each virus (use 10 ul of virus and 200,000 cell per well) in a 4.5 ml-volume in a 50-ml conical tube. Cells were incubated for 3 hrs at 37 °C. with frequent shaking. Aliqouts of 50 ul of a 4× solution of the compounds to be tested were added to the 96-well plates. After 3 hr of incubation, infected cells were washed two times with PBS and one time with culture medium by spinning down the cells at 1500 rpm for 5 minutes at room temperature. After the last wash cells were resuspended in 15 ml of growth medium. 150 ul of cell suspension were delivered into each well. Cells were incubated for 7 days at 37 °C.
(§5) Day 5-Medium change: Cells were resuspended by pipetting and 100 ul of medium was removed. 100 ul of fresh medium was added with 1× compound. Cells were incubated for 3 more days at 37° C.
(§6) Day 8-p24 assay: At day 8 the p24 production was measured using the HIV-1 p24 Antigen ELISA (Zeptometrix) according to manufacturer instructions.

Diff.CD34+ = experiment: Inhibition of cell growth (GI50) in Diff.CD34+ cells, 7-d
HIV-1 virus strain JR-FL = experiment: Inhibition of infection of primary HIV-1 isolate JR-FL in PBMCs (p24 antigen ELISA); details: Human immunodeficiency virus 1, 192 h; PBMC infected with virus JR-FL, p24 production at day 8
Description: as §1, §2, §3, §4, §5, §6

[1] = Inhibition of cell growth (GI50) in Diff.CD34+ cells, 7-d; details: Diff.CD34+ cells
[2] = 7-d, experiment of Aug. 6, 2007, concentration required for 50% inhibition of cell growth, read-out: GI50 (μM) Aug. 6, 2007 7-d
[3] = 7-d, experiment of Aug. 13 2007, concentration required for 50% inhibition of cell growth, read-out: GI50 (μM Aug. 13 2007 7-d)
[4] = average of the two 7-d experiments, read-out: AVG GI50

Row | SMILES | Selectivity Index (HIV-1 virus strain 20678) | EC50 (HIV-1 virus strain 20678) [nM] | GI50 (Diff.CD34+; [2]) [µM] | GI50 (Diff.CD34+; [3]) [µM] | GI50 (Diff.CD34+; [4]) [µM] | EC50 (HIV-1 virus strain JR-FL) [nM] | GI50 at 7 d [1, 2] [µM] | GI50 at 7 d [1, 3] [µM] | GI50 at 7 d [1, 4] [µM]
1 | CCCCCCCCCCCCSCC(COP(=O)(O)OC[C@H]1O[C@@H](n2cc(C)c(=O)[nH]c2=O)C[C@@H]1N=[N+]=[N-])OCCCCCCCCCC (stereo partly drawn) [FOZ ISO 850, Phosphoric Acid (2S,3S,5R)-3-azido-5-(5-methyl-2,4-dioxo-3,4-dihydro-2H-pyrimidin-1-yl)-tetrahydro-furan-2-ylmethyl ester 2-decyloxy-3-dodecylsulfanyl-propyl ester] | 11.06 | 279 | 2.2 | 4 | 3.09 | 474 | – | – | –
2 | CCCCCCCCCCCCSC[C@H](COP(=O)(O)OC[C@H]1O[C@@H](n2cc(C)c(=O)[nH]c2=O)C[C@@H]1N=[N+]=[N-])OCCCCCCCCCC (mixture of isomers) [FOZ MIX Na, Phosphoric acid (2S,3S,5R)-3-azido-5-(5-methyl-2,4-dioxo-3,4-dihydro-2H-pyrimidin-1-yl)-tetrahydro-furan-2-ylmethyl ester (S)-2-decyloxy-3-dodecylsulfanyl-propyl ester sodium salt] | – | 1410 | – | – | – | 1140 | 1.5 | 2.2 | 1.83
3 | CCCCCCCCCCCCSC[C@@H](COP(=O)(O)OC[C@H]1O[C@@H](n2cc(C)c(=O)[nH]c2=O)C[C@@H]1N=[N+]=[N-])OCCCCCCCCCC [FOZ ISO 851, Phosphoric Acid (2S,3S,5R)-3-azido-5-(5-methyl-2,4-dioxo-3,4-dihydro-2H-pyrimidin-1-yl)-tetrahydro-furan-2-ylmethyl ester (R)-2-decyloxy-3-dodecylsulfanyl-propyl ester] | 3.5 | 294 | 0.85 | 1.2 | 1.03 | 504 | – | – | –
4 | CCCCCCCCCCCCSCC(COP(=O)(O)OC[C@H]1O[C@@H](n2cc(C)c(=O)[nH]c2=O)C[C@@H]1N=[N+]=[N-])OCCCCCCCCCC (stereo partly drawn) [FOZ ISO 850 Na, Phosphoric Acid (2S,3S,5R)-3-azido-5-(5-methyl-2,4-dioxo-3,4-dihydro-2H-pyrimidin-1-yl)-tetrahydro-furan-2-ylmethyl ester 2-decyloxy-3-dodecylsulfanyl-propyl ester] | 14.3 | – | – | > 10 | – | – | 4 | – | 4
5 | CCCCCCCCCCCCSC[C@@H](COP(=O)(O)OC[C@H]1O[C@@H](n2cc(C)c(=O)[nH]c2=O)C[C@@H]1N=[N+]=[N-])OCCCCCCCCCC [FOZ ISO 851 Na, Phosphoric Acid (2S,3S,5R)-3-azido-5-(5-methyl-2,4-dioxo-3,4-dihydro-2H-pyrimidin-1-yl)-tetrahydro-furan-2-ylmethyl ester (R)-2-decyloxy-3-dodecylsulfanyl-propyl ester] | 4.5 | – | 2.2 | > 10 | 2.2 | – | – | – | –
6 | Cc1cn([C@H]2C[C@H](N=[N+]=[N-])[C@@H](CO)O2)c(=O)[nH]c1=O [AZT, 3′-azido-3′-deoxythymidine, reference compound] | 1.8 | 76 | – | – | – | 89.8 | 0.07 | 0.2 | 0.14
